Results on 1 compound are retold here after ChEMBL document CHEMBL1136841, “Discovery of 2-(alpha-methylbenzylamino) pyrazines as potent Type II inhibitors of FMS” (Bioorg Med Chem Lett, 2009).

Data set [1] has as its system Rattus norvegicus. Kind of data set: Apparent volume of distribution in rat at 5 mg/kg, iv. The data set is classed as ADME, organism-based. On the set-up: dose 5 mg/kg, route intravenous. Conditions: in vivo.
Data set [2] has as its system Rattus norvegicus. Nature of the data set: Half life in rat at 5 mg/kg, iv. Format: ADME, organism-based. Also on record: dose 5 mg/kg, route intravenous. Conditions: in vivo.

Regarding `Cc1cccc(C(=O)Nc2cccc([C@H](C)Nc3cncc(Cl)n3)c2)c1`, in the data set on Rattus norvegicus [1], the Vz came out at 30.2 L/kg. The compound also had a t1/2 in the data set with Rattus norvegicus [2] of 5.9 h.
